Measurements as given in US20230382919A1, “OXA- IBOGAINE INSPIRED ANALOGUES FOR TREATMENT OF NEUROLOGICAL AND PSYCHIATRIC DISORDERS” (The Trustees of Columbia University in the City of New York, priority 2021, published 2023).
Read-outs that look alike come from different tables or passages of the source.

Columns and labels:
[1] = biological target: KOR (Rattus norvegicus (Rat), UniProt P34975); experiment: KOR agonist (cAMP) assay, CHO cells (commercial); type: cell-based
Source text: (§1) Potency (IC50 and EC50) and efficacy values for hERG, rKOR-CHO, hMOR-CHO, h5-HT2A-HEK, h5-HT2B-CHO, h5-HT2C HEK were obtained by screening the selected compounds via commercially available assay services.

[2] = biological target: 5-HT2B (Homo sapiens (Human), UniProt P41595); experiment: 5-HT2B agonist (IP1) assay, CHO cells (commercial); type: cell-based; conditions: for Emax at 10 µM: CHO, read-out: % of control agonist maximal response (5-HT2B); for EC50: IP1 agonist assay
Source text: as §1

[3] = biological target: 5-HT2A (Homo sapiens (Human), UniProt P28223); experiment: 5-HT2A agonist (IP1) assay, HEK-293 cells (commercial); type: cell-based; conditions: for Emax at 10 µM: HEK293, read-out: % of control agonist maximal response (5-HT2A); for EC50: IP1 agonist assay
Source text: as §1

[4] = biological target: 5-HT2C (Homo sapiens (Human), UniProt P28335); experiment: 5-HT2C agonist (IP1) assay, HEK-293 cells (commercial); type: cell-based; conditions: for Emax at 10 µM: HEK293, read-out: % of control agonist maximal response (5-HT2C); for EC50: IP1 agonist assay
Source text: as §1

[5] = biological target: hERG (Homo sapiens (Human), UniProt Q12809); experiment: hERG radioligand ([3H]Dofetilide) displacement binding assay (commercial); conditions: Table 4
Source text: as §1

[6] = biological target: hSERT (Homo sapiens (Human), UniProt P31645); experiment: hSERT fluorometric screening assay (APP+ uptake, hSERT-HEK cells); type: cell-based; conditions: average ± SEM, n ≥ 4; read-out: IC50 SERT [μM ± SEM]
Protocol: (§2) Inhibition assays of transporters (hSERT and rVMAT2) were performed according to the following protocol.
(§3) Stably transfected hSERT-HEK and rVMAT2-HEK cellular cultures were maintained in Dulbecco's Minimal Essential Medium (DMEM) with GlutaMAX (Gibco) with the following additions: 10% (v/v) Fetal Bovine Serum (FBS, Atlanta Biologicals), 100 U/mL Penicillin (Gibco), and 10 μg/mL Streptomycin (Gibco). With regards to the former cell lineage, an additional ingredient, 500 μg/mL Geneticin (G418) (Gibco) was included to preserve the respective transgene.
(§4) For both hSERT and rVMAT2 screening experiments, respective singly transfected cells were seeded at a density of 0.09×10^6 cells/well in poly-D-Lysine (Alamanda Polymers, Inc.) coated white solid-bottom 96-well plates (Costar). Growth was permitted for approximately 44 hours in said aqueous media and at an incubation environment of 37° C. and 5% Carbon Dioxide. At the beginning of the experiment, the cellular growth solution was aspirated, and individual cells were rinsed with 150 μL of 1×Dulbecco's Phosphate Buffered Saline (PBS; HyClone). 63 μL of Experimental Media (consisting of the following contents: DMEM without phenol red but with 4.5 g/L of D-Glucose (Gibco), 1% (v/v) FBS (Atlanta Biologicals), 100 U/mL Penicillin (Gibco), and 10 μg/mL Streptomycin (Gibco)) with 2×tiered concentrations of inhibitor (or DMSO, the vehicle of these experiments) were added to the respective wells. Control inhibitors used in these studies include Imipramine for hSERT experiments, and Reserpine for rVMAT2 experiments (Eiden, L. E. and Weihe, E. 2011; Sette, M. et al. 1983). At the conclusion of the pre-incubation period (60 minutes for hSERT experiments and 30 minutes for rVMAT2 experiments), 63 μL of Experimental Media containing 2×various concentrations of tested inhibitor (or vehicle) along with a specified amount of fluorescent substrate, APP^+ (Karpowicz, R. J. et al 2013) (final concentration: 1.1 μM for hSERT experiments) or FFN206 (Hu, G. et al. 2013) (final concentration: 0.75 μM for rVMAT2 experiments) were added to the present solution contained within the wells. […] A final solution of 120 μL of PBS is finally added to all corresponding wells for cell maintenance before undergoing fluorescence uptake reading by a BioTek H1MF plate reader. […]
(§5) Numerical analysis of the collected experimental data preceded as accordingly. Respective inhibitor values were first subtracted from vehicular values to quantify the respective fluorescence uptake. This metric was then analyzed using the dose-response-inhibitor nonlinear curve fitting model ([inhibitor] vs response (three parameters)) as supplied by GraphPad Prism 8 software. […]

[7] = biological target: rVMAT2 (Rattus norvegicus (Rat), UniProt Q01827); experiment: rVMAT2 fluorometric screening assay (FFN206 uptake, rVMAT2-HEK cells); type: cell-based; conditions: average ± SEM, n ≥ 4; read-out: IC50 VMAT2 [μM ± SEM]
Protocol: as §2, §3, §4, §5

[8] = biological target: mouse DOR (mDOR) (Mus musculus (Mouse), UniProt P32300); experiment: G-protein BRET functional opioid assay, DOR; type: cell-based
Protocol: (§6) HEK-293T cells were obtained from the American Type Culture Collection (Rockville, MD) and were cultured in a 5% CO2 atmosphere at 37° C. in Dulbecco's Modified Eagle Medium (high glucose #11965; Life Technologies Corp.; Grand Island, NY) supplemented with 10% FBS (Premium Select, Atlanta Biologicals; Atlanta, GA), 100 U/mL penicillin, and 100 μg/mL streptomycin (#15140, Life Technologies). DNA Constructs: The mouse MOR (mMOR), the mouse DOR (mDOR) and the rat KOR (rKOR) were provided by Dr Lakshmi Devi at Mount Sinai School of Medicine. The G proteins used included untagged GαoB with Renilla luciferase 8 (RLuc8) inserted at position 91 (GαoB-RLuc8); Gβ1 (β1); Gγ2 which was fused to the full-length mVenus at its N-terminus via the amino acid linker GSAGT (mVenus-γ2). All constructs were sequence confirmed prior to use in experiments.
(§7) Transfection: The following cDNA amounts were transfected into HEK-293T cells (5×10^6 cells/plate) in 10-cm dishes using polyethylenimine (PEI) in a 1:1 ratio (diluted in Opti-MEM, Life Technologies): 2.5 μg MOR/DOR/KOR, 0.125 μg GαoBRLuc8, 6.25 μg (1, 6.25 μg mVenus-γ2. Cells were maintained in the HEK-293T media described above. After 24 hours the media was changed, and the experiment was performed 24 hours later (48 hours after transfection). BRET: Transfected cells were dissociated and re-suspended in phosphate-buffered saline (PBS). Approximately 200,000 cells/well were added to a black-framed, white-well, 96-well plate (#60050; Perkin Elmer; Waltham, MA). The microplate was centrifuged and the cells were resuspended in PBS. After 5 minutes, 5 μM of the luciferase substrate coelenterazine H was added to each well. After 5 minutes, ligands were added and the BRET signal was measured 5 minutes later on a PHERAstar FS plate reader. The BRET signal was quantified by calculating the ratio of the light emitted by the energy acceptor, mVenus (510-540 nm), over the light emitted by the energy donor, RLuc8 (485 nm). This drug-induced BRET signal was normalized using the Emax of a known agonist (DAMGO, DPDPE or U-50,488) as the maximal response at MOR/DOR/KOR. Data were analyzed using the dose-response-stimulation nonlinear curve fitting model (log[agonist] vs. response (three parameters)).

[9] = biological target: rat KOR (rKOR) (Rattus norvegicus (Rat), UniProt P34975); experiment: G-protein BRET functional opioid assay, KOR; type: cell-based
Protocol: as §6, §7

[10] = biological target: mouse MOR (mMOR) (Mus musculus (Mouse), UniProt P42866); experiment: G-protein BRET functional opioid assay, MOR; type: cell-based
Protocol: as §6, §7

[11] = CHO, Table 2, read-out: % of control agonist maximal response (KOR)
[12] = Table 2, cAMP agonist assay, rat KOR, CHO

Chain of 5-HT2C (P28335 whole entry, looked up): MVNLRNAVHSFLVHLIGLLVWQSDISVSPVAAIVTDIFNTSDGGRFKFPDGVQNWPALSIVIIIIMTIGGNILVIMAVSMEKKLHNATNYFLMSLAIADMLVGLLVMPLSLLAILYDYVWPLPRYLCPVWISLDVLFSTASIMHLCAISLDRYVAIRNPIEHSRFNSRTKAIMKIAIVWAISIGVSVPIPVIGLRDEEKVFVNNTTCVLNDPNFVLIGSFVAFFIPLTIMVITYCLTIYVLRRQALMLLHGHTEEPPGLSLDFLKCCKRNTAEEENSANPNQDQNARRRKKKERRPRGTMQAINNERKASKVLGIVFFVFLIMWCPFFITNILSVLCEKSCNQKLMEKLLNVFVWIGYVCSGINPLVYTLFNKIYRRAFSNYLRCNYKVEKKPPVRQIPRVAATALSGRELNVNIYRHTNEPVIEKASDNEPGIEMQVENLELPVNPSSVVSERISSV
Chain of 5-HT2B (P41595 whole entry): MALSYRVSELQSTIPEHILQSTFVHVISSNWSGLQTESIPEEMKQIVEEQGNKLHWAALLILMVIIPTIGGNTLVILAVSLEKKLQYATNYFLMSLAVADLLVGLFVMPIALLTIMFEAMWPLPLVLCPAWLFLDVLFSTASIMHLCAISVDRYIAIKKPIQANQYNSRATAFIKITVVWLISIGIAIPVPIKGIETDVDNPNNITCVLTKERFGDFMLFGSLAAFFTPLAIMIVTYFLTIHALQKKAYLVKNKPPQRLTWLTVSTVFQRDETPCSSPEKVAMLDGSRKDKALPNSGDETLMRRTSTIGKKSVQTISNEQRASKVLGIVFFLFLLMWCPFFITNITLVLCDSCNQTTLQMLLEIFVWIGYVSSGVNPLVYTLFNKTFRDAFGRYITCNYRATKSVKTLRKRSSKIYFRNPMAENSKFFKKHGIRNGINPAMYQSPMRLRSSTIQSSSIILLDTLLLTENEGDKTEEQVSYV
Chain of mouse MOR (mMOR) (P42866 whole entry, looked up): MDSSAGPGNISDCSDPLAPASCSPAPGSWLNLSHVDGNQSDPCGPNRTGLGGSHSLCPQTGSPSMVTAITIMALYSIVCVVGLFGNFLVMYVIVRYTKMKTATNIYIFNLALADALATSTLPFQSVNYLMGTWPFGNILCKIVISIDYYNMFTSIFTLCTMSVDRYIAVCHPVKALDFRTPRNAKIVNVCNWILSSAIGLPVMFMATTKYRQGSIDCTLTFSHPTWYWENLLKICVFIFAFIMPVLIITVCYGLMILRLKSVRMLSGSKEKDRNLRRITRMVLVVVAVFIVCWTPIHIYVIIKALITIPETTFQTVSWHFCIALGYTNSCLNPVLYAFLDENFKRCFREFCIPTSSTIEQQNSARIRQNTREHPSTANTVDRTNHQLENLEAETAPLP
Chain of hERG (Q12809 whole entry): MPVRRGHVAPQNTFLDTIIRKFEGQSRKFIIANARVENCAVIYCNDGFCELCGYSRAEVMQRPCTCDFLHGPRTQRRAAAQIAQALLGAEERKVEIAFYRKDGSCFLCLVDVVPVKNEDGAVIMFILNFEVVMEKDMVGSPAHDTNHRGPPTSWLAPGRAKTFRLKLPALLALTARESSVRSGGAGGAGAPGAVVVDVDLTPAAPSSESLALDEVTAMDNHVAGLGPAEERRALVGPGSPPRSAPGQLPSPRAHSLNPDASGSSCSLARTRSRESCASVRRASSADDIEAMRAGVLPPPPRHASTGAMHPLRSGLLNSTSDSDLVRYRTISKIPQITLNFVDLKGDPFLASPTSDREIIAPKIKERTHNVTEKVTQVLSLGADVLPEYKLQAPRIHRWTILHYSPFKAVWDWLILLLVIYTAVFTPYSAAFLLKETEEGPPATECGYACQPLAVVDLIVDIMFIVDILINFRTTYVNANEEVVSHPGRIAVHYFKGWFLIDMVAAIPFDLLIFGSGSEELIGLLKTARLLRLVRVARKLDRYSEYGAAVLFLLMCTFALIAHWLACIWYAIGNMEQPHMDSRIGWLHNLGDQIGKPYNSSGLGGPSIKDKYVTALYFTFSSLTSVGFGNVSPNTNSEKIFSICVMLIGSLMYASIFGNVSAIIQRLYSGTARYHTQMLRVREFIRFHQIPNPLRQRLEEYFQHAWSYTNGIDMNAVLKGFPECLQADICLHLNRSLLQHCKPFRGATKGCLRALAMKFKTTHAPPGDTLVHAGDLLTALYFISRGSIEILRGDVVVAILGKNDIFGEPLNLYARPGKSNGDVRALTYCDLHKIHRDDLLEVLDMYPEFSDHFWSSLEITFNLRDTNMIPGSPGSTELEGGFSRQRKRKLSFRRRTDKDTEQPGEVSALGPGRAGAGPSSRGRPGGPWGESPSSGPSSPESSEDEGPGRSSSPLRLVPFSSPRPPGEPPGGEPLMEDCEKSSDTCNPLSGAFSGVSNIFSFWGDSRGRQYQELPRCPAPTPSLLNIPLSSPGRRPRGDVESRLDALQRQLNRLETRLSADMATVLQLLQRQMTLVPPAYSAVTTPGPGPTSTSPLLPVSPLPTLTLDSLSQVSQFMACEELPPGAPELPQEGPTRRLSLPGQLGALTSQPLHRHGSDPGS
Chain of rVMAT2 (Q01827 whole entry): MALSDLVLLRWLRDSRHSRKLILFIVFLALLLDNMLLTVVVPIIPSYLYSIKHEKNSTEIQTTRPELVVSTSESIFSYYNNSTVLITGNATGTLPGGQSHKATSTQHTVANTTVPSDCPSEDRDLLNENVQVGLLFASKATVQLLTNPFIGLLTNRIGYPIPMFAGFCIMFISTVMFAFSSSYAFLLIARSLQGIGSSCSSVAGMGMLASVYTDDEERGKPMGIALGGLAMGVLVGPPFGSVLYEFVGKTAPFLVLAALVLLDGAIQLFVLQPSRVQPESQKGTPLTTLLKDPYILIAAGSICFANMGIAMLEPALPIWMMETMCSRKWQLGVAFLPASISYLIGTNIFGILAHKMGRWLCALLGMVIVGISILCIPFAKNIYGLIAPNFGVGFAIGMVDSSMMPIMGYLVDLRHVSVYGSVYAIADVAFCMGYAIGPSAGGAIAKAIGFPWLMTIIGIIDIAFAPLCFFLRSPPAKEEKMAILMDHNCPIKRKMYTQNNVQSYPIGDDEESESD

CN1CCCc2oc3ccccc3c2C1 [drawing 164]
Emax at 10 µM [1, 11]: 47%
EC50 [1, 12]: ~3 µM
Emax at 10 µM ([2]; Table 2): 3%
EC50 ([2]; Table 2): > 10 µM
Emax at 10 µM ([3]; Table 2): 4%
EC50 ([3]; Table 2): > 10 µM
Emax at 10 µM ([4]; Table 2): 44%
EC50 ([4]; Table 2): ~14000 nM

Oc1ccc2oc3c(c2c1)CCN1CCCC3C1 (centres unmarked) [drawing 171]
IC50 ([5]; [3H]Dofetilide displacement): ~60 µM
inhibition at 30 µM ([5]; human, HEK-293 cells expressing hERG, probe [3H]Dofetilide, efficacy at 30 μM, read-out: % inhibition of control specific binding (hERG)): 38%
Emax at 10 µM ([2]; Table 4): 5%
EC50 ([2]; Table 4): 0.4 µM
Emax at 10 µM ([3]; Table 4): 1%
EC50 ([3]; Table 4): > 10 µM
Emax at 10 µM ([4]; Table 4): < 0%
EC50 ([4]; Table 4): > 10000 nM

c1ccc2c3c(oc2c1)CCCNC3 [drawing 163]
Emax at 10 µM [1, 11]: 45%
EC50 [1, 12]: ~4.4 µM
Emax at 10 µM ([2]; Table 2): 22%
EC50 ([2]; Table 2): > 10 µM
Emax at 10 µM ([3]; Table 2): 26%
EC50 ([3]; Table 2): ~60 µM
Emax at 10 µM ([4]; Table 2): 78%
EC50 ([4]; Table 2): ~1300 nM

CC1Cc2oc3ccc(O)cc3c2CCN1 (centres unmarked) [drawing 170]
Emax at 10 µM ([3]; Table 4): 45%
EC50 ([3]; Table 4): 1.9 µM
Emax at 10 µM ([4]; Table 4): 86%
EC50 ([4]; Table 4): 400 nM

Oc1ccc2oc3c(c2c1)CCNCC3 [drawing 169]
Emax at 10 µM ([2]; Table 4): 19%
EC50 ([2]; Table 4): > 10 µM
Emax at 10 µM ([3]; Table 4): 72%
EC50 ([3]; Table 4): 0.6 µM
Emax at 10 µM ([4]; Table 4): 93%
EC50 ([4]; Table 4): 100 nM

CN1CCCc2oc3ccccc3c2C1 [drawing 168]
IC50 [6]: 7.1 ± 2.3 µM
IC50 [7]: 15 ± 4.6 µM

Oc1ccc2oc3c(c2c1)CCN1CCCC3C1 (centres unmarked) [drawing 175]
EC50 [8]: 120 nM
Emax ([8]; normalized to DPDPE, read-out: % of control agonist maximal response (DOR)): 55%
EC50 [9]: 140 nM
Emax ([9]; normalized to U-50,488, read-out: % of control agonist maximal response (KOR)): 30%
EC50 [10]: 110 nM
Emax ([10]; normalized to DAMGO, read-out: % of control agonist maximal response (MOR)): 44%
Emax ([1]; CHO, Table 5, CAMP Assay, read-out: % of control agonist maximal response (KOR)): 91%
EC50 ([1]; Table 5, CAMP Assay): 0.05 µM
